# Active and inactive are the calls of the source.
# Experiments:
# [1] = molecular target: Solute carrier family 12 member 2/member 5 (Homo sapiens, UniProt P55011+Q9H2X9); assay: KCC2 and NKCC1 inhibition by rubidium flux, cell-based, NKCC1 counter-screen (AID 1734); assay type: functional, HEK293
# [2] = molecular target: T1, Rac GTPase-activating protein 1 (Homo sapiens, UniProt Q9H0H5); assay: MgcRacGAP GTPase-activating activity inhibitors, confirmation, biochemical, ADP Hunter fluorescence, primary and confirmatory (AID 624330); assay type: functional
# T1 sequence (Q9H0H5 whole entry): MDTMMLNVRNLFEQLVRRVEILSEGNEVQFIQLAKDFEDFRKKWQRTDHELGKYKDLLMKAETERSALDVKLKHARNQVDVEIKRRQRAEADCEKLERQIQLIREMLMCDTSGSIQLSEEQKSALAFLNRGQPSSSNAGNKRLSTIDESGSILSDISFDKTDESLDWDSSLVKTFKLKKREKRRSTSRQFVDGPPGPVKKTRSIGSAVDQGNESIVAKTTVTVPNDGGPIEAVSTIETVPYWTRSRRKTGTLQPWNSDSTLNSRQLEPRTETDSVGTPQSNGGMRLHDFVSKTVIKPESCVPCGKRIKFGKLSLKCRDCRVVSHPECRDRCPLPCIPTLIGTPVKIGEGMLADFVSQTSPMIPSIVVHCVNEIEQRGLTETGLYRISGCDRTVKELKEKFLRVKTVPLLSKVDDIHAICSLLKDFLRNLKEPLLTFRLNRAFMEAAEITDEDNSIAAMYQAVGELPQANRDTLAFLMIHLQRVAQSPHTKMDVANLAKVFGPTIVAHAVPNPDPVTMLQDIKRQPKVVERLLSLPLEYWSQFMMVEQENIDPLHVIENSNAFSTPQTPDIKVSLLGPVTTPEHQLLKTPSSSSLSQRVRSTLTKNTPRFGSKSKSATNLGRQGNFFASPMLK
# [3] = molecular target: T2, Alkaline phosphatase, tissue-nonspecific isozyme (Homo sapiens, UniProt P05186); assay: human TNAP enzyme inhibitors, SAR follow-up, biochemical, luminescent, dose response (AID 1056)
# T2 sequence (P05186 whole entry): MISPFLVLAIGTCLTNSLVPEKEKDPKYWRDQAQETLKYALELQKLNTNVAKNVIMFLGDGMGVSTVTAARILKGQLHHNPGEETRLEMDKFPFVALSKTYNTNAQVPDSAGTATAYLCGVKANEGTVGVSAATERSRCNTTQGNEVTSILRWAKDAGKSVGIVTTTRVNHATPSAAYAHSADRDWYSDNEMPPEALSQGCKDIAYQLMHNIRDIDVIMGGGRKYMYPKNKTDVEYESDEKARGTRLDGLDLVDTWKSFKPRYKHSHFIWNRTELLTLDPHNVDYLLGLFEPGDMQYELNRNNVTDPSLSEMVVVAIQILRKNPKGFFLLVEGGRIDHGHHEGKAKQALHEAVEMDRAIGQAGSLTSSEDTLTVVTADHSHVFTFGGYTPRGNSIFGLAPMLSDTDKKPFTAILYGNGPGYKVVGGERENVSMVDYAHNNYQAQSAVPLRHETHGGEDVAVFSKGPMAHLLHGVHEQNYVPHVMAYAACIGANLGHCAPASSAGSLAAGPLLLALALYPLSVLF
# [4] = molecular target: Alkaline phosphatase, placental type (Homo sapiens, UniProt P05187); assay: PLAP enzyme inhibitors, confirmation, biochemical, luminescence (AID 1512); assay type: functional
# Chain of Alkaline phosphatase, placental type (P05187 whole entry): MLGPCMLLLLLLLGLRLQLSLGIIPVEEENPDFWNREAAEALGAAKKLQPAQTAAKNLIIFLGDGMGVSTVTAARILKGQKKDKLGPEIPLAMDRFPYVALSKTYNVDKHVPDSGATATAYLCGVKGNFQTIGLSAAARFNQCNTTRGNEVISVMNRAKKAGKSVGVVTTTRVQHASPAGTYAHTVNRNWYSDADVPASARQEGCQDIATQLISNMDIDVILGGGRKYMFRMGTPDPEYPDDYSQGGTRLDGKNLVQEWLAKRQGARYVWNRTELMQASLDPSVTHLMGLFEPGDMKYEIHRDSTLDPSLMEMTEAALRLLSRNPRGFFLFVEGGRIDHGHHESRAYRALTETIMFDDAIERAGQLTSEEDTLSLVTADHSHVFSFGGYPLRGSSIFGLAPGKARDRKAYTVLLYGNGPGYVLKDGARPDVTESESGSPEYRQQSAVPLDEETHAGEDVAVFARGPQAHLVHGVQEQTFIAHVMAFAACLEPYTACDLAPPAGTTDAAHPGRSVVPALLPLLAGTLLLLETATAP
# [5] = Luminescent dose response cell-based high throughput screening assay for inhibitors of the Janus kinase 2 mutant JAK2V617F. [Related pubchem assays: 1446 (Primary screen.), 1521 (Confirmation assay.), 1486 (Counter screen.)]; assay type: functional
# [6] = HEK293 cell cytotoxicity, dose response, cytotoxicity control, cherry-picks, set 5 (AID 1053117); assay type: functional, cell-based
# [7] = fibronectin fibrillogenesis inhibitors in fibroblasts, dose response, AH1F cells, Alexa488-fibronectin fluorescence, cherry-pick, set 2 (AID 1117283); assay type: functional, cell-based
# [8] = HEK293T cytotoxicity, dose response, cytotoxicity control for miR-122 modulator project, cell-based, activator set, cherry-pick (AID 720690); assay type: functional;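 note: HEK293T human cells scored for general mammalian cytotoxicity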
# cells = conditions: HEK293
# [9] = C. neoformans growth inhibition with sorbitol, dose response, mechanism study for C. neoformans lysis project, alamar blue, dry powder, set 3 (AID 743304); assay type: functional, organism-based
# Cytochrome P450 2C19 [10] = molecular target: T3, Cytochrome P450 2C19 (Homo sapiens, UniProt P33261); assay: qHTS Assay for Inhibitors and Substrates of Cytochrome P450 2C19. [Related pubchem assays: 410 ]; assay type: ADME; conditions: read-out: Potency
# T3 sequence (P33261 whole entry): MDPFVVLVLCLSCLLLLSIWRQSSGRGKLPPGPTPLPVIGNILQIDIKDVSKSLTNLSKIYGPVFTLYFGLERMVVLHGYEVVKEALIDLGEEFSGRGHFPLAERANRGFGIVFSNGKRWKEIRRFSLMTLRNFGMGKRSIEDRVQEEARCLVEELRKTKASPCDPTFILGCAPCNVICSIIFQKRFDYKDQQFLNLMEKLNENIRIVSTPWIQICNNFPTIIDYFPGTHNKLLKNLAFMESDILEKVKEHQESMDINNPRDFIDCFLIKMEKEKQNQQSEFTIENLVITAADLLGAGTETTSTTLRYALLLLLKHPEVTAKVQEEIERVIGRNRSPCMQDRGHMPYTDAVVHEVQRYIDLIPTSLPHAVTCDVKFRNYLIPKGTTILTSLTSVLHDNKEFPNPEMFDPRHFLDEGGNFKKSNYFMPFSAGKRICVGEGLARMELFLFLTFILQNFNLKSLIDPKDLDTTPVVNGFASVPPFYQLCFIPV
# [11] = inhibitors of Vif binding to APOBEC3G peptide, primary screen, biochemical, TR-FRET, GST-Vif 1-94, biotin-A3G peptide, dose response retest (AID 1117319); assay type: functional;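 note: TR-FRET signal of purified GST-Vif binding a biotinylated A3G peptide; inhibitors lower the FRET signal by blocking Vif and A3G binding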
# [12] = Vero cell cytotoxicity, dose response, cytotoxicity control for Vif-APOBEC3G degradation inhibitor project, Vero cells (AID 1117358); assay type: functional; conditions: Human immunodeficiency virus 1, Vero
# [13] = A Cell Based Secondary Assay To Explore Cytotoxicity of Compounds that Sensitize Mycobacterium Tuberculosis to Beta-Lactam Antibiotics.; assay type: functional
# [14] = molecular target: ADP-ribosylation factor GTPase-activating protein 1 (Rattus norvegicus, UniProt Q62848); assay: Fluorescence polarization-based biochemical high throughput dose response screening assay to identify inhibitors of ADP-ribosylation factor GTPase activating protein 1 (ARFGAP1).; assay type: functional
# Chain of ADP-ribosylation factor GTPase-activating protein 1 (Q62848 whole entry): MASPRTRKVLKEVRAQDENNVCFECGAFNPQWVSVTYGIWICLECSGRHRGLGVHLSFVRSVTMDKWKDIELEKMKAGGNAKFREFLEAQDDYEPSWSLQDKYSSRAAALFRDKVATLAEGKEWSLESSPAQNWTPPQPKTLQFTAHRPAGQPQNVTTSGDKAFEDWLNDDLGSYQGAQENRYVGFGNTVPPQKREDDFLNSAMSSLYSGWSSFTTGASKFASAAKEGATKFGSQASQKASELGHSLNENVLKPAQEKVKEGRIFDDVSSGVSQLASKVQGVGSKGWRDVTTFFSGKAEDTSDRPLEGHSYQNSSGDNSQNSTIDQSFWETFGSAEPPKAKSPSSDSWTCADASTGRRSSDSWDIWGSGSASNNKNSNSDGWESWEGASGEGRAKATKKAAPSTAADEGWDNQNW
# [15] = molecular target: Photoreceptor-specific nuclear receptor (Homo sapiens, UniProt Q9Y5X4); assay: NR2E3 inverse agonists, dose response, biochemical, TR-FRET (AID 463256); assay type: functional
# Chain of Photoreceptor-specific nuclear receptor (Q9Y5X4 whole entry): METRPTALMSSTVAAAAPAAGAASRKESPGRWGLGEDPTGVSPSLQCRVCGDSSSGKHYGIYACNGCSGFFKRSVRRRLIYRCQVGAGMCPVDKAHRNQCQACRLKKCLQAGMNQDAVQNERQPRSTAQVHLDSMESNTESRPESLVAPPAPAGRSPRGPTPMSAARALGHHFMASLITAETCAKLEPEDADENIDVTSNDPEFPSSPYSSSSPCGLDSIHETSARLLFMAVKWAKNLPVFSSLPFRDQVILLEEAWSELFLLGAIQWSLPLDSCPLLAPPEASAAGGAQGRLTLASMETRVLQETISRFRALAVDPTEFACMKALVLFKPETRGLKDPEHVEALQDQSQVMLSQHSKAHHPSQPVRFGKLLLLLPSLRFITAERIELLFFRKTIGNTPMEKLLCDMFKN
# [16] = molecular target: Peroxisome proliferator-activated receptor gamma/Nuclear receptor corepressor 2 (Homo sapiens, UniProt P37231+Q9Y618); assay: Counterscreen for NR2E3 inverse agonists: TR-FRET-based biochemical high throughput dose response assay to identify inverse agonists of the interaction between peroxisome proliferator-activated receptor gamma (PPARg) and nuclear receptor co-repressor 2 (NCOR2).; assay type: functional
# Cytochrome P450 2C9 = Cytochrome P450 2C9 (Homo sapiens, UniProt P11712)
# Chain of Cytochrome P450 2C9 (P11712 whole entry): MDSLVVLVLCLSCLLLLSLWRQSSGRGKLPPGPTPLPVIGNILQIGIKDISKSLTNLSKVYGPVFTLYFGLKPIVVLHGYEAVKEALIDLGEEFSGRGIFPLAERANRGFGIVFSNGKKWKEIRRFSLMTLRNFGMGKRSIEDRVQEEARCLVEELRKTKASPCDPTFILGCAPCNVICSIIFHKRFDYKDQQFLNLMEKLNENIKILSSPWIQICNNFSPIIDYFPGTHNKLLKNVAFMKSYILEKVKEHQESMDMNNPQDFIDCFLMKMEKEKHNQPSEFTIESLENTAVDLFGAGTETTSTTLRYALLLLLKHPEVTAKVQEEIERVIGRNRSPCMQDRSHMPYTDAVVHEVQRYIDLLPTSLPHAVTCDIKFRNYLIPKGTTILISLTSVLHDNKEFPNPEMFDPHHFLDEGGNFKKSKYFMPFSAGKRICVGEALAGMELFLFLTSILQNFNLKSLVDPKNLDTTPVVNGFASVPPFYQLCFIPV
# Cytochrome P450 2C19 [17] = molecular target: T3, Cytochrome P450 2C19; assay: Cytochrome panel assay with activity outcomes. Panel member name: p450-cyp2c19 Compounds with AC50 equal or less than 10 uM are considered active; assay type: functional
# Phospholipase D2 [18] = molecular target: T4, Phospholipase D2 (Homo sapiens, UniProt O14939); assay: PLD2 Cellular Concentration Response Study.; assay type: functional
# T4 sequence (O14939 whole entry): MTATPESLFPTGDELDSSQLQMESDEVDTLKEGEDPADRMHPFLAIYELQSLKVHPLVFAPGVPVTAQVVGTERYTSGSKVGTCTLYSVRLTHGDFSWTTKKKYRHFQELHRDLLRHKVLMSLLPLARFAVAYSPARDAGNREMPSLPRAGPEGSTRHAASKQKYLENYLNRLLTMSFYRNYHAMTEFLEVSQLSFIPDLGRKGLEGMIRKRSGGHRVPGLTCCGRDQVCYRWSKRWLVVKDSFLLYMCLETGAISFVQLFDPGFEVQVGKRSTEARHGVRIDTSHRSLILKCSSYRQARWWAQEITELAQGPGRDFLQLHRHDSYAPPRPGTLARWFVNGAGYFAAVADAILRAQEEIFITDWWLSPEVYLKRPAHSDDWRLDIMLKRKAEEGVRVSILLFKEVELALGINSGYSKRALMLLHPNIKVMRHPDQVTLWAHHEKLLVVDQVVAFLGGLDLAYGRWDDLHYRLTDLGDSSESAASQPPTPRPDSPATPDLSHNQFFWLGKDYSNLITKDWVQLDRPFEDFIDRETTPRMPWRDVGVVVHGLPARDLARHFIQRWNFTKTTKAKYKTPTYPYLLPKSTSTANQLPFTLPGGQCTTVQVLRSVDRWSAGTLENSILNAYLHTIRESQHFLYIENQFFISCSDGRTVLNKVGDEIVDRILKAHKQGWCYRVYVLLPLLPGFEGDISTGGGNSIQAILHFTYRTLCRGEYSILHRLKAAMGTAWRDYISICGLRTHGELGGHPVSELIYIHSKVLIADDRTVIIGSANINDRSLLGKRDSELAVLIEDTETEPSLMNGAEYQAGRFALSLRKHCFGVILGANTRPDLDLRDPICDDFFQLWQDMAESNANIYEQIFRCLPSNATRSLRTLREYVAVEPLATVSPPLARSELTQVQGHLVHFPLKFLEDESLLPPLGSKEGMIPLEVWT
# Phospholipase D2 [19] = molecular target: T4, Phospholipase D2; assay: Discovery of PLD2 inhibitors using the Purified Enzyme Concentration Response Assay.; assay type: functional
# Phospholipase D1 [20] = molecular target: T5, Phospholipase D1 (Homo sapiens, UniProt Q13393); assay: PLD1 Cellular Concentration Response Study.; assay type: functional
# T5 sequence (Q13393 whole entry): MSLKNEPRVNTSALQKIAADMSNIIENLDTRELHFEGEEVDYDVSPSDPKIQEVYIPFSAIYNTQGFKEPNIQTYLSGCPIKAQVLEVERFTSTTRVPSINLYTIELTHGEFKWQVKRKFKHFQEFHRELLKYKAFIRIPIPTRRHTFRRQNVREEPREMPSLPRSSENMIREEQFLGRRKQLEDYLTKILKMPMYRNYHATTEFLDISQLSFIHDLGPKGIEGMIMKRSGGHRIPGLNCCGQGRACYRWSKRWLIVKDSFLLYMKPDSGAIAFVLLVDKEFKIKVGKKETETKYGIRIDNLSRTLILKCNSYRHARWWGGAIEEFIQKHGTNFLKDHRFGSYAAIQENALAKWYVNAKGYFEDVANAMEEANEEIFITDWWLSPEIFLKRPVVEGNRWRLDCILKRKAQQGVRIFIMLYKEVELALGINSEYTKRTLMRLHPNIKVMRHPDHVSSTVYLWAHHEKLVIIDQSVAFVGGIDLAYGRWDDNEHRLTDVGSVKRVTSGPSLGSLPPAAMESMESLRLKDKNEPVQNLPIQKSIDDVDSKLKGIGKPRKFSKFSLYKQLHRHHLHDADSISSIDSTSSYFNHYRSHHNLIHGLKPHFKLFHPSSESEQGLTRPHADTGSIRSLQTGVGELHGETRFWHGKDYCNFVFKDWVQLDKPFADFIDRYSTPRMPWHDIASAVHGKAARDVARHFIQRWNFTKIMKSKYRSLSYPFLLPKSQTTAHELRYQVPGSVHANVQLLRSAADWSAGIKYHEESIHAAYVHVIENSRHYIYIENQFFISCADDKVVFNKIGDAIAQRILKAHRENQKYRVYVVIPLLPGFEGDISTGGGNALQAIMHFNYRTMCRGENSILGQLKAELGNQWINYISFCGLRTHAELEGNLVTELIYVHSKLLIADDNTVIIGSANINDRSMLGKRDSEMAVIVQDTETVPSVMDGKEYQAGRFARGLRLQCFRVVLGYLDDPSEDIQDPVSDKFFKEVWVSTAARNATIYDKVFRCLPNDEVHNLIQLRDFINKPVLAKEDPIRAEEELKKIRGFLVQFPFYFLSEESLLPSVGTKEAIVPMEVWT
# Phospholipase D1 [21] = molecular target: T5, Phospholipase D1; assay: purified PLD1 inhibitor potency, IC50, confirmation, biochemical, concentration response (AID 743390); assay type: functional
# [22] = P. falciparum Dd2 blood-stage growth inhibition, dose response, SYBR Green fluorescence, erythrocytes, dry powder, set 2 (AID 1159574); assay type: functional, cell-based
# [23] = cytotoxicity toward Colo320 cells – cell-based, CellTiter-Glo luminescence, IC50, dose response (AID 1117334); assay type: functional; conditions: COLO 320
# [24] = Concentration-dependent survival of SW480 colon cancer line, luminescence detection with CellTiter-Glo, half-maximal inhibitory concentration (AID 1117338); assay type: functional
# [25] = SNU-C1 cell viability reduction, dose response, CellTiter-Glo luminescence (AID 1117323); assay type: functional, cell-based
# [26] = cytotoxicity toward HCT116 cells – cell-based, CellTiter-Glo luminescence, IC50, dose response (AID 1117332); assay type: functional; conditions: HCT-116
# [27] = HCT116 cell viability decrease, GSK3B pretreatment – CellTiter-Glo, IC50, dose response (AID 1117339); assay type: functional; conditions: HCT-116
# [28] = RKO cell viability reduction, dose response, CellTiter-Glo luminescence (AID 1117322); assay type: functional
# [29] = Luminescence Cell-Based Dose Retest to Confirm Inhibitors of Cancer Stem Cells. [Related pubchem assays (depositor defined):AID2717, AID2721]; assay type: functional; conditions: Homo sapiens
# [30] = cytotoxicity toward HT-29 cells – cell-based, CellTiter-Glo luminescence, IC50, dose response (AID 1117330); assay type: functional
# [31] = microbe, parasite or virus in culture; assay type: functional; conditions: Mycobacterium tuberculosis
# [32] = CellTiter-Glo luminescent dose response of DLD-1 viability loss (AID 1117352); assay type: functional
compound,measurement,setting,value
O=C(/C=C/c1ccccc1)Nc1scc(-c2ccccc2)c1C(=O)O,IC50,[1],7.9 µM (active)
O=C(CSc1nnnn1-c1ccc(F)cc1)c1ccc(O)c(O)c1,IC50,[2],80.6 µM (active)
same,IC50,[3],5.98 µM (active)
same,IC50,[4],1.89 µM (active)
same,IC50,[5],2.16 µM (active)
CO[C@H]1CN(C)C(=O)c2cc(NC(=O)Nc3cc(Cl)cc(Cl)c3)ccc2OC[C@H](C)NC[C@@H]1C,AC50,[6],> 52 µM (inactive)
same,AC50,[7],> 70 µM (inactive)
same,AC50,[8],16.9 µM (active)
COCc1nc2ccccc2n1CCOc1ccc(C(C)(C)C)cc1,AC50,cells,34 µM (active)
same,AC50,[9],52.3 µM (active)
CC(=O)c1ccc(C2C=CC(Oc3ccc(-c4ccccc4)cc3)C(CO)O2)cc1 (centres undefined),AC50,Cytochrome P450 2C19 [10],0.794 µM (inconclusive)
O=C(Nc1c2c(nn1-c1ccc(F)cc1)C[S+]([O-])C2)C12CC3CC(CC(C3)C1)C2 (centres undefined),IC50,[11],> 100 µM (active)
O=C(NNC(=O)c1cc(OCC(F)(F)F)ccc1OCC(F)(F)F)c1cccc(C(F)(F)F)c1,CC50,[12],> 40 µM (active)
same,CC50,[13],> 40 µM (active)
O=C(Nc1ccc(-c2cc3ccccc3oc2=O)c(Cl)c1)c1cccnc1,IC50,[14],17.9 µM (inactive)
same,IC50,[15],> 39.8 µM (not active)
same,IC50,[16],> 39.8 µM (not active)
same,AC50,Cytochrome P450 2C9,inconclusive
same,AC50,Cytochrome P450 2C19 [17],inconclusive
O=C(NCCN1CCC2(CC1)C(=O)NCN2Cc1cccnc1)c1cc2ccccc2[nH]1,IC50,Phospholipase D2 [18],0.05 µM (active)
same,IC50,Phospholipase D2 [19],0.94 µM (active)
same,IC50,Phospholipase D1 [20],3.59 µM (active)
same,IC50,Phospholipase D1 [21],20 µM (active)
O=C(c1ccccc1F)N1CC(=O)N2[C@H](CO)[C@H](c3ccc(-c4cccnc4)cc3)[C@@H]2C1,AC50,[22],> 39 µM (inactive)
CC1=C(/C=C/C(C)=C/C=C/C(C)=C/C(=O)Nc2ccc(O)cc2)C(C)(C)CCC1 [FENRETINIDE],IC50,[23],3.24 µM (active)
same,IC50,[24],4.85 µM (active)
same,IC50,[25],6.69 µM (inactive)
same,IC50,[26],5.3 µM (inactive)
same,IC50,[27],4.95 µM (active)
same,IC50,[28],1.72 µM (active)
same,AC50,[29],1.04 µM (active)
same,IC50,[30],2.12 µM (active)
same,CC50,[31],14.4 µM (active)
same,IC50,[32],9.49 µM (inactive)

# — ChEMBL document CHEMBL1201862, “PubChem BioAssay data set” (2004)
